Measurements as given in patent US7407968B2, “Compounds” (AstraZeneca AB, priority 2003, dated 2008).
Where two headings read alike, the source gives them in different places.

Experiments:
[1] = molecular target: Human CB1 receptor from Receptor Biology (hCB1) (Homo sapiens, UniProt P21554); test: hCB1 receptor binding (3H-CP55,940 displacement)
[2] = molecular target: T1, human CB2 receptor from BioSignal (hCB2) (Homo sapiens, UniProt P34972); test: hCB2 receptor binding (3H-CP55,940 displacement)
T1 construct: purchased BioSignal
T1 sequence (P34972 whole entry): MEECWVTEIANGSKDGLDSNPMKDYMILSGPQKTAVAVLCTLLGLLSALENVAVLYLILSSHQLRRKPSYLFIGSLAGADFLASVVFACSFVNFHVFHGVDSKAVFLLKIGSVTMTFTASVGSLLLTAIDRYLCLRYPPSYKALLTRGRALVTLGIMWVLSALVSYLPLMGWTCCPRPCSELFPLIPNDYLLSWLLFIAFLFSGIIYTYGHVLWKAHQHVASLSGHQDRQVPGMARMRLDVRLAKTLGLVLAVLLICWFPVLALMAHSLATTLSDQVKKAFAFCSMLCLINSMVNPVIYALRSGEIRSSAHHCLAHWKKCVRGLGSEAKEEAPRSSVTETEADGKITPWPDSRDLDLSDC

[3] = hCB1 membranes, 3H-CP55,940 radioligand, Ki=IC50/(1+[rad]/Kd), read-out: hCB1 Ki

Chain of Human CB1 receptor from Receptor Biology (hCB1) (P21554 whole entry): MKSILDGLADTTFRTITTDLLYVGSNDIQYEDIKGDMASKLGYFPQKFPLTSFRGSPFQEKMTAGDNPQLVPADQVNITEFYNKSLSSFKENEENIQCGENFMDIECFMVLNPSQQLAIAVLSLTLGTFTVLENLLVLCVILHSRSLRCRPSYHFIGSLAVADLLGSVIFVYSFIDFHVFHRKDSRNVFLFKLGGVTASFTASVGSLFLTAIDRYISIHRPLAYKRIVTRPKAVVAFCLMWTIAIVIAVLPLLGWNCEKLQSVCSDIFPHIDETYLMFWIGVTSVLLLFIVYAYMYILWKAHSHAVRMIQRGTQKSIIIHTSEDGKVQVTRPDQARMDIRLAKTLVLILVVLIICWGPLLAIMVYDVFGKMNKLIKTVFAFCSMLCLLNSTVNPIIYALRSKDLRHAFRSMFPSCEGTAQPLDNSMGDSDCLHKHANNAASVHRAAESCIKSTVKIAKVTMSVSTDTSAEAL

Structure (SMILES)	Ki [1, 3]	Ki ([2]; hCB2 Ki (nM))	Ki ([1]; hCB1 Ki (nM))	Ki ([2]; read-out: hCB2 Ki)	Ki ([2]; hCB2 membranes, 3H-CP55,940 radioligand, Ki=IC50/(1+[rad]/Kd), read-out: hCB2 Ki)
CCOc1ccc(Cc2nc3cc(C(=O)N(CC(F)(F)F)CC(F)(F)F)ccc3n2CC2CCCCO2)cc1 (centres unmarked) [Compound 16]	1410 nM	3.3 nM			
CCOc1ccc(Cc2nc3cc(C(=O)N(CC(F)(F)F)CC(F)(F)F)ccc3n2Cc2ccoc2)nc1 [Compound 29]	5810 nM	68.7 nM			
CCOc1ccc(Cc2nc3cc(C(=O)N(CC(F)(F)F)CC(F)(F)F)ccc3n2CC2CCCCC2)nc1 [Compound 30]		3.1 nM	455 nM		
CCOc1ccc(Cc2nc3cc(C(=O)N(CC(F)(F)F)CC(F)(F)F)ccc3n2Cc2ccco2)cc1 [Compound 4]	4690 nM				
CCOc1ccc(Cc2nc3cc(C(=O)N(CC(F)(F)F)CC(F)(F)F)ccc3n2CCC(C)C)cc1 [Compound 1]	2800 nM	3.1 nM			
CCOc1ccc(Cc2nc3cc(C(=O)N(CC(F)(F)F)CC(F)(F)F)ccc3n2CC2CCCC2)nc1 [Compound 27]		3.2 nM	1360 nM		
CC(C)Oc1ccc(Cc2nc3cc(C(=O)N(CC(F)(F)F)CC(F)(F)F)ccc3n2CC2CCCCC2)nc1 [Compound 32]	142 nM	2.7 nM			
CCOc1ccc(Cc2nc3cc(C(=O)N(CC(F)(F)F)CC(F)(F)F)ccc3n2CCC(C)C)nc1 [Compound 21]		15.4 nM	5430 nM		
CCOc1ccc(Cc2nc3cc(C(=O)N(CC(F)(F)F)CC(F)(F)F)ccc3n2CC2CCC2)cc1 [Compound 25]		2 nM	1560 nM		
CCOc1ccc(Cc2nc3cc(C(=O)N(CC(F)(F)F)CC(F)(F)F)ccc3n2Cc2ccncc2)cc1 [Compound 8]	5350 nM	16.7 nM			
CCOc1ccc(Cc2nc3cc(C(=O)N(CC(F)(F)F)CC(F)(F)F)ccc3n2CC2CCC2)nc1 [Compound 26]		6.6 nM	5530 nM		
CCOc1ccc(Cc2nc3cc(C(=O)N(CC(F)(F)F)CC(F)(F)F)ccc3n2CC2CC2)cc1 [Compound 2]			5080 nM	5.6 nM	
CCOc1ccc(Cc2nc3cc(C(=O)N(CC(F)(F)F)CC(F)(F)F)ccc3n2C[C@@H]2CCCO2)cc1 [Compound 15]		9.6 nM	5750 nM		
CCOc1ccc(Cc2nc3cc(C(=O)N(CC(F)(F)F)CC(F)(F)F)ccc3n2CC2CCOCC2)nc1 [Compound 20]		11.2 nM	2730 nM		
CCOc1ccc(Cc2nc3cc(C(=O)N(CC(F)(F)F)CC(F)(F)F)ccc3n2C[C@H]2CCCO2)cc1 [Compound 14]		14.8 nM	5750 nM		
CCOc1ccc(Cc2nc3cc(C(=O)N(CC(F)(F)F)CC(F)(F)F)ccc3n2Cc2ccco2)cc1 [Compound 7]	5530 nM				
CCOc1ccc(Cc2nc3cc(C(=O)N(CC(F)(F)F)CC(F)(F)F)ccc3n2CC2CCCCC2)cc1 [Compound 3]		0.8 nM	84.8 nM		
CCOc1ccc(Cc2nc3cc(C(=O)N(CC(F)(F)F)CC(F)(F)F)ccc3n2Cc2ccsc2)nc1 [Compound 36]	5750 nM	14 nM			
CCOc1ccc(C(C)c2nc3cc(C(=O)N(CC(F)(F)F)CC(F)(F)F)ccc3n2Cc2ccncc2)cc1 (centres unmarked) [Compound 9]	5570 nM				165 nM
CCOc1ccc(Cc2nc3cc(C(=O)N(CC(F)(F)F)CC(F)(F)F)ccc3n2CC2CCOCC2)cc1 [Compound 13]		5.4 nM	565 nM		
